Laboratory results published in patent publication US8969363B2, “Heterocyclic compounds and uses thereof” (Infinity Pharmaceuticals, Inc., priority 2011, dated 2015).
Where two headings read alike, the source gives them in different places.

What was measured:
Balb/c splenic B cells = assay: B cell activation and proliferation assay (Alamar Blue); assay type: cell-based; conditions: Mus musculus
Method: The ability of one or more subject compounds to inhibit B cell activation and proliferation is determined according to standard procedures known in the art. For example, an in vitro cellular proliferation assay is established that measures the metabolic activity of live cells. The assay is performed in a 96 well microtiter plate using Alamar Blue reduction. Balb/c splenic B cells are purified over a Ficoll-Paque™ PLUS gradient followed by magnetic cell separation using a MACS B cell Isolation Kit (Miletenyi). Cells are plated in 90 μl at 50,000 cells/well in B Cell Media (RPMI+10% FBS+Penn/Strep+50 μM bME+5 mM HEPES). A compound provided herein is diluted in B Cell Media and added in a 10 μl volume. Plates are incubated for 30 min at 37° C. and 5% CO2 (0.2% DMSO final concentration). A 50 μl B cell stimulation cocktail is then added containing either 10 μg/ml LPS or 5 μg/ml F(ab′)2 Donkey anti-mouse […] plus 2 ng/ml recombinant mouse IL4 in B Cell Media. Plates are incubated for 72 hours at 37° C. and 5% CO2. A volume of 15 μL of Alamar Blue reagent is added to each well and plates are incubated for 5 hours at 37° C. and 5% CO2. Alamar Blue fluoresce is read at 560Ex/590Em, and IC50 or EC50 values are calculated using GraphPad Prism 5.

PI3Kα = target: T1, PI3Kα (Homo sapiens, UniProt P42336); assay: PI3 Kinase HTRF assay, PI3Kα; assay type: biochemical; conditions: 10 μM PIP2, 10 μM ATP; 'Greater than 10 μM' and 'Greater than 1 μM to 10 μM'; read-out: PI3K α IC50
T1 construct: purchased Millipore Corporation 14-602-K
T1 sequence (P42336 whole entry): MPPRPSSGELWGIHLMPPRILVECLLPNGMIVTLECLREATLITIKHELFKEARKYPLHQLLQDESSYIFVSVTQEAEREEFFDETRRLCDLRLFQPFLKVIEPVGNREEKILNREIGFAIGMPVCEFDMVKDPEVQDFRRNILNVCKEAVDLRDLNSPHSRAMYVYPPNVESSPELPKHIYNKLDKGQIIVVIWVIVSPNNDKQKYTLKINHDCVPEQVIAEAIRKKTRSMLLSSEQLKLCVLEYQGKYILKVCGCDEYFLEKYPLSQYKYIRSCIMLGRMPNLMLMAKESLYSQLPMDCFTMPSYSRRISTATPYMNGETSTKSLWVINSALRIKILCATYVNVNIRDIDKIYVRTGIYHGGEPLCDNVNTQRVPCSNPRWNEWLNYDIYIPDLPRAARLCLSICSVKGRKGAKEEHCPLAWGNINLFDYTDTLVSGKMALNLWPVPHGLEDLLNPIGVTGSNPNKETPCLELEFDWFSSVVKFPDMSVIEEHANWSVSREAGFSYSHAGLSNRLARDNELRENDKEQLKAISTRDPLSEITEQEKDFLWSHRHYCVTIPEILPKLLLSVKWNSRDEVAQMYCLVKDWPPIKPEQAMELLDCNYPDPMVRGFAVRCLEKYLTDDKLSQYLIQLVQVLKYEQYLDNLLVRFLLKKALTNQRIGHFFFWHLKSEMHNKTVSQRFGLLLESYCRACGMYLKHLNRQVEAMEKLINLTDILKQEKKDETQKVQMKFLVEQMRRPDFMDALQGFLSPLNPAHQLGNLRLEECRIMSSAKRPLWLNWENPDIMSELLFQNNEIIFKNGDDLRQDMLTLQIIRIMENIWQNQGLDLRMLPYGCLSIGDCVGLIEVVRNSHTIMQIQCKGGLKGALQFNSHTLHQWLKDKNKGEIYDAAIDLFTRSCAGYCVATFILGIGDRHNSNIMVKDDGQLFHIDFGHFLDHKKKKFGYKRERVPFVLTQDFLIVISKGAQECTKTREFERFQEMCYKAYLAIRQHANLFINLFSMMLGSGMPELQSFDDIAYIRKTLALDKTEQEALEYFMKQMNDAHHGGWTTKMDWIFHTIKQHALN
T1 sequence (P27986 whole entry partner): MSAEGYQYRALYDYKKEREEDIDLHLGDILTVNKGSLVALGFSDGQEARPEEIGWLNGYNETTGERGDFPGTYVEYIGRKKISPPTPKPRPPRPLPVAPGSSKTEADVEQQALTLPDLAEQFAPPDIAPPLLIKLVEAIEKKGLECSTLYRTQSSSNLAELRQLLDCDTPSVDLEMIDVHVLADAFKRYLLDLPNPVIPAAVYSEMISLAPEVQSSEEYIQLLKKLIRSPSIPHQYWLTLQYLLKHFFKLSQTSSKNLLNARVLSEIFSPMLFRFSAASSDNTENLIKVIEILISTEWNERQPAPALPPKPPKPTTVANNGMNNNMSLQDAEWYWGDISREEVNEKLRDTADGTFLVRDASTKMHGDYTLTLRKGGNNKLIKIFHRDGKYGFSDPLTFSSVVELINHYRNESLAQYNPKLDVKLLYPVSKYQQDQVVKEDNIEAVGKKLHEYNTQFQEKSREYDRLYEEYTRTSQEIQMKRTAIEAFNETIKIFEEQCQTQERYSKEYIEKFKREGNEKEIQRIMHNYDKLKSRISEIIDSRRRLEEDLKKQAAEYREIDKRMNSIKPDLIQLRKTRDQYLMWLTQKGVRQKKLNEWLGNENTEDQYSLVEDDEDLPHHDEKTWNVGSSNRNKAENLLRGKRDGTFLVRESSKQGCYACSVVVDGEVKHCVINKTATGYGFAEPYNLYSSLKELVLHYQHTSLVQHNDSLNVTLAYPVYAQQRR
Excerpt: (§1) A PI3-Kinase HTRF® assay kit (cat No. 33-016) purchased from Millipore Corporation was used to screen compounds provided herein. This assay used specific, high affinity binding of the GRP1 pleckstrin homology (PH) domain to PIP3, the product of a Class 1A or 1B PI3 Kinase acting on its physiological substrate PIP2. During the detection phase of the assay, a complex was generated between the GST-tagged PH domain and biotinylated short chain PIP3. The biotinylated PIP3 and the GST-tagged PH domain recruited fluorophores (Streptavidin-Allophycocyanin and Europium-labeled anti-GST respectively) to form the fluorescence resonance energy transfer (FRET) architecture, generating a stable time-resolved FRET signal. The FRET complex was disrupted in a competitive manner by non-biotinylated PIP3, a product formed in the PI3 Kinase assay.
(§2) PI3 Kinase α, β, γ and δ activity was assayed using the PI3 Kinase HTRF® assay kit (catalogue No. 33-016) purchased from Millipore Corporation. Purified recombinant PI3Kα (catalogue No. 14-602-K), PI3Kβ (catalogue No. 14-603-K), PI3Kγ (catalogue No. 14-558-K) and PI3Kδ (catalogue No. 14-604-K) were obtained from Millipore Corporation. Purified recombinant PI3K enzyme was used to catalyze the phosphorylation of phosphatidylinositol 4,5-bisphosphate (PIP2 at 10 μM) to phosphatidylinositol 3,4,5-trisphosphate (PIP3) in the presence of 10 μM ATP. The assay was carried out in 384-well format and detected using a Perkin Elmer EnVision Xcite Multilabel Reader. Emission ratios were converted into percent inhibitions and imported into GraphPad Prism software. The concentration necessary to achieve inhibition of enzyme activity by 50% (IC50) was calculated using concentrations ranging from 20 μM to 0.1 nM (12-point curve). IC50 values were determined using a nonlinear regression model available in GraphPad Prism 5. […]

PI3Kβ = assay: PI3 Kinase HTRF assay, PI3Kβ; assay type: biochemical, human; conditions: 10 μM PIP2, 10 μM ATP, read-out: PI3K β IC50
PI3Kβ, sequence (Q8BTI9 whole entry): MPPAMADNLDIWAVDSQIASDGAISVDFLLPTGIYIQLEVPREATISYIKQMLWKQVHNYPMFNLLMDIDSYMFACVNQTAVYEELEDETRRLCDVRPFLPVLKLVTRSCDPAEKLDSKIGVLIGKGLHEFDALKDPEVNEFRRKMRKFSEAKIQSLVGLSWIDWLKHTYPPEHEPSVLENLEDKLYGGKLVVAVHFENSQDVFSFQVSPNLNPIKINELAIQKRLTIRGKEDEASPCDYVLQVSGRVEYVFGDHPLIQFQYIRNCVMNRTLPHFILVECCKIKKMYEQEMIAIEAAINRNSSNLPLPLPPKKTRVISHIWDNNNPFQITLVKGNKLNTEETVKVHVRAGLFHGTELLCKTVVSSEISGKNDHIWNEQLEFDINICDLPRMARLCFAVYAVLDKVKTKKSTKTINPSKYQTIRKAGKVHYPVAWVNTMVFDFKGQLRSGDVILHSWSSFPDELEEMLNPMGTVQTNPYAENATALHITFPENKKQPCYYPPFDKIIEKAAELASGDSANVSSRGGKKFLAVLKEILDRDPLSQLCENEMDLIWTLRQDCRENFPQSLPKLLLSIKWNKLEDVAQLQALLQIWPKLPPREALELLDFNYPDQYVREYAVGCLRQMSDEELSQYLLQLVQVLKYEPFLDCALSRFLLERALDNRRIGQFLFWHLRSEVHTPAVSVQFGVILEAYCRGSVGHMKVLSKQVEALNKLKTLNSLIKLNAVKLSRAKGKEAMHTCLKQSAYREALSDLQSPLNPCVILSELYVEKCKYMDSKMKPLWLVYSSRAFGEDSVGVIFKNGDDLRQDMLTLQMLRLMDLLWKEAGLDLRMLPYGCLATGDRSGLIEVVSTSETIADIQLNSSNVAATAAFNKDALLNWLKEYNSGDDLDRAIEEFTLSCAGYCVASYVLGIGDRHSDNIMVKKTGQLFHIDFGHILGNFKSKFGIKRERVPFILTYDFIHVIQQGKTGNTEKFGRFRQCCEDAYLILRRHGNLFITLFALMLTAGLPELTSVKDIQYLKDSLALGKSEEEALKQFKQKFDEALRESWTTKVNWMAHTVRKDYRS
Excerpt: as §1
as §2, with “Purified recombinant PI3Kα (catalogue No. 14-602-K), PI3Kβ (catalogue No. 14-603-K), PI3Kγ (catalogue No. 14-558-K) and PI3Kδ (catalogue No. 14-604-K) were obtained from Millipore Corporation.” left out, “The concentration necessary to achieve inhibition of enzyme activity by 50% (IC50) was calculated using concentrations ranging from 20 μM to 0.1 nM (12-point curve).” left out

[1] = 'Greater than 10 μM' and 'Greater than 1 μM to 10 μM'

Structure (SMILES)	IC50 (PI3Kα) [µM]	IC50 (PI3Kβ; [1]) [µM]	IC50 (PI3Kβ; 'Less than 100 nM') [µM]	EC50 (Balb/c splenic B cells; 'Less than 100 nM') [µM]	EC50 (Balb/c splenic B cells; 1 μM to 100 nM) [µM]
C[C@H](Nc1ncnc2cccnc12)c1cc2cccc(Cl)c2c(=O)n1-c1ccccc1 [Compound I-2]	1 to 10	–	–	< 0.1	–
C[C@H](Nc1ncnc2cccnc12)c1cc2c(F)cccc2c(=O)n1-c1ccccc1 [Compound I-4]	1 to 10	1 to 10	–	< 0.1	–
C[C@H](Nc1ncnc2cccnc12)c1cc2scc(Cl)c2c(=O)n1-c1ccccc1 [Compound I-29]	1 to 10	–	–	–	–
C[C@H](Nc1nc(N)nc2cccnc12)c1cc2cccc(-c3cnn(C)c3)c2c(=O)n1-c1ccccc1 [Compound I-36]	1 to 10	> 10	–	–	–
Cc1cc(-c2cccc3cc([C@H](C)Nc4ncnc5cccnc45)n(-c4ccccc4)c(=O)c23)cnc1C [Compound I-44]	1 to 10	> 10	–	–	–
Cc1nn(C)cc1-c1cccc2cc([C@H](C)Nc3ncnc4cccnc34)n(-c3ccccc3)c(=O)c12 [Compound I-47]	1 to 10	> 10	–	–	–
C[C@H](Nc1ccnc2cccnc12)c1cc2cccc(Cl)c2c(=O)n1-c1ccccc1 [Compound I-49]	1 to 10	–	–	< 0.1	–
C[C@H](Nc1ccnc2ccnn12)c1cc2cccc(Cl)c2c(=O)n1-c1ccccc1 [II-2, (S)-8-chloro-2-phenyl-3-(1-(pyrazolo[1,5-a]pyrimidin-7-ylamino)ethyl)isoquinolin-1(2H)-one]	1 to 10	–	–	< 0.1	–
C[C@H](Nc1ccnc2ccnn12)c1cc2cccc(Cl)c2c(=O)n1C1CC1 [II-7]	1 to 10	–	–	< 0.1	–
C[C@H](Nc1ccnn2ccnc12)c1cc2cccc(Cl)c2c(=O)n1-c1ccccc1 [II-10]	–	–	< 0.1	< 0.1	–
C[C@H](Nc1ccnn2ccnc12)c1cc2cccc(Cl)c2c(=O)n1C1CC1 [II-11]	1 to 10	–	–	< 0.1	–
C[C@H](Nc1ccnn2ccnc12)c1cc2cccc(Cl)c2c(=O)n1-c1cccc(F)c1 [II-14]	1 to 10	–	–	< 0.1	–
C[C@H](Nc1ccnc2ccnn12)c1cc2scc(Cl)c2c(=O)n1-c1ccccc1 [II-20]	1 to 10	–	–	–	–
C[C@H](Nc1ccnn2ccnc12)c1cc2scc(Cl)c2c(=O)n1-c1ccccc1 [II-22]	1 to 10	–	–	–	–
C[C@H](Nc1ncnc2ccnn12)c1cc2cccc(Cl)c2c(=O)n1-c1ccccc1 [II-24]	1 to 10	–	–	–	–
C[C@H](Nc1ncnc2ccnn12)c1cc2cccc(Cl)c2c(=O)n1-c1cccc(F)c1 [II-30]	–	1 to 10	–	< 0.1	–
COc1ncc(-c2cccc3cc([C@H](C)Nc4ccnn5ccnc45)n(-c4ccccc4)c(=O)c23)cn1 [II-48]	1 to 10	> 10	–	–	–
C[C@H](Nc1cc(N)nc2ccnn12)c1cc2cccc(Cl)c2c(=O)n1-c1ccccc1 [II-49]	–	1 to 10	–	< 0.1	–
COc1ncc(-c2cccc3cc([C@H](C)Nc4cc(N)nc5ccnn45)n(-c4ccccc4)c(=O)c23)cn1 [II-50]	–	> 10	–	< 0.1	–

Further lines, with some results ahead:

IC50 (PI3Kα) [µM]	IC50 (PI3Kβ; [1]) [µM]	IC50 (PI3Kβ; 'Less than 100 nM') [µM]	Structure (SMILES)	EC50 (Balb/c splenic B cells; 'Less than 100 nM') [µM]	EC50 (Balb/c splenic B cells; 1 μM to 100 nM) [µM]
1 to 10	–	–	C[C@H](Nc1ncnc2[nH]cnc12)c1cc2cccc(C(F)(F)F)c2c(=O)n1-c1ccccc1 [III-3]	< 0.1	–
1 to 10	–	–	C[C@H](Nc1ncnc2cccnc12)c1cc2cccc(C(F)(F)F)c2c(=O)n1-c1ccccc1 [III-4]	< 0.1	–
–	–	< 0.1	C[C@H](Nc1ncnc2scnc12)c1cc2cccc(C(F)(F)F)c2c(=O)n1-c1ccccc1 [III-5]	< 0.1	–
1 to 10	–	–	C[C@H](Nc1ccnc2ccnn12)c1cc2cccc(C(F)(F)F)c2c(=O)n1-c1ccccc1 [III-6]	< 0.1	–
1 to 10	–	–	C[C@H](Nc1ccnn2ccnc12)c1cc2cccc(C(F)(F)F)c2c(=O)n1-c1ccccc1 [III-8, (S)-3-(1-(imidazo[1,2-b]pyridazin-8-ylamino)ethyl)-2-phenyl-8-(trifluoromethyl)isoquinolin-1(2H)-one]	< 0.1	–
1 to 10	–	–	C[C@H](Nc1ncnc2scnc12)c1cc2cccc(C(F)(F)F)c2c(=O)n1-c1cccc(F)c1 [III-10]	< 0.1	–
–	1 to 10	–	C[C@H](Nc1ccnc2ccnn12)c1cc2cccc(C(F)(F)F)c2c(=O)n1-c1cccc(F)c1 [III-11]	< 0.1	–
–	–	< 0.1	C[C@H](Nc1nc(N)nc2[nH]cnc12)c1cc2cccc(C(F)(F)F)c2c(=O)n1-c1ccccc1 [III-17]	< 0.1	–
1 to 10	1 to 10	–	C[C@H](Nc1ncnc2[nH]cc(F)c12)c1cc2cccc(C(F)(F)F)c2c(=O)n1-c1ccccc1 [III-18]	–	–
1 to 10	–	–	C[C@H](Nc1ncnc2[nH]cc(C(N)=O)c12)c1cc2cccc(C(F)(F)F)c2c(=O)n1-c1ccccc1 [III-20]	–	–
1 to 10	–	–	C[C@H](Nc1nc(N)nc2cccnc12)c1cc2cccc(C(F)(F)F)c2c(=O)n1-c1ccccc1 [III-23]	–	–
1 to 10	1 to 10	–	C[C@H](Nc1nc(N)nc2scnc12)c1cc2cccc(C(F)(F)F)c2c(=O)n1-c1ccccc1 [III-25]	–	–
1 to 10	–	–	C[C@H](Nc1ncnn2ccnc12)c1cc2cccc(C(F)(F)F)c2c(=O)n1-c1ccccc1 [III-27]	< 0.1	–
1 to 10	–	–	C[C@H](Nc1nc(N)nc2[nH]cnc12)c1cc2cccc(C(F)(F)F)c2c(=O)n1-c1cccc(F)c1 [III-30]	< 0.1	–
–	1 to 10	–	C[C@H](Nc1ccnc2cccnc12)c1cc2cccc(C(F)(F)F)c2c(=O)n1-c1ccccc1 [III-31]	< 0.1	–
1 to 10	–	–	C[C@H](Nc1ccnc2scnc12)c1cc2cccc(C(F)(F)F)c2c(=O)n1-c1ccccc1 [III-36, (S)-2-phenyl-3-(1-(thiazolo[5,4-b]pyridin-7-ylamino)ethyl)-8-(trifluoromethyl)isoquinolin-1(2H)-one]	< 0.1	–
1 to 10	–	–	C[C@H](Nc1ncnc2scnc12)c1cc2scc(C(F)(F)F)c2c(=O)n1-c1ccccc1 [III-39]	< 0.1	–
–	> 10	–	C[C@H](Nc1ncnc(N)c1C#N)c1cc2cccc(C(F)(F)F)c2c(=O)n1-c1ccccc1 [III-42]	< 0.1	–
1 to 10	–	–	C[C@H](Nc1nc(N)ncc1C#N)c1cc2cccc(C(F)(F)F)c2c(=O)n1-c1ccccc1 [III-44]	< 0.1	–
1 to 10	–	–	C[C@H](Nc1nc(N)ncc1C#N)c1cc2cccc(C(F)(F)F)c2c(=O)n1-c1cccc(F)c1 [III-45]	< 0.1	–
–	1 to 10	–	C[C@H](Nc1nc(N)ncc1C(F)(F)F)c1cc2cccc(C(F)(F)F)c2c(=O)n1-c1cccc(F)c1 [III-46]	–	0.1 to 1
1 to 10	–	–	C[C@H](Nc1ncnc(N)c1C#N)c1cc2cccc(C(F)(F)F)c2c(=O)n1-c1cccc(F)c1 [III-49]	< 0.1	–
–	1 to 10	–	C[C@H](Nc1ncnc2[nH]nc(C#N)c12)c1cc2cccc(Cl)c2c(=O)n1-c1ccccc1 [IV-11]	< 0.1	–
1 to 10	–	–	C[C@H](Nc1ncnn2ccnc12)c1cc2cccc(Cl)c2c(=O)n1-c1ccccc1 [IV-12]	–	–
1 to 10	1 to 10	–	C[C@H](Nc1ncnn2ccnc12)c1cc2cccc(Cl)c2c(=O)n1-c1cccc(F)c1 [IV-13]	–	–
–	1 to 10	–	C[C@H](Nc1nc(N)nc2nccnc12)c1cc2cccc(Cl)c2c(=O)n1-c1ccccc1 [IV-22]	< 0.1	–
